{"source": "paper PMC6944649", "about": "“Population Pharmacokinetics, Efficacy Exposure-response Analysis, and Model-based Meta-analysis of Fenebrutinib in Subjects with Rheumatoid Arthritis” (Pharmaceutical Research, 2020)", "key": {"BTK": {"tested_on": "BTK", "parameters": "method as in PMID 29484638", "settings": "healthy volunteers, Phase 1; cited from earlier work"}, "[1]": {"tested_on": "patients with rheumatoid arthritis", "assay": "Exposure-response (E-R) analysis of longitudinal DAS28 (CRP) in Phase 2 trial GA29350", "format": "in vivo, human", "from_the_text": "(§1) GA29350 (ANDES, ClinicalTrials.gov Identifier: NCT02833350) was a multicenter, Phase 2, randomized, double-blind, placebo-controlled, parallel-group, dose-ranging trial to evaluate the efficacy and safety of fenebrutinib in patients with moderate to severe active RA and an inadequate response to previous MTX therapy (cohort 1) or anti-TNF therapy (cohort 2) ([24],[25]).\n(§2) In cohort 1, 480 patients were enrolled, and were randomly assigned to 1 of 5 parallel treatment arms (3 fenebrutinib arms, 1 placebo arm, and 1 adalimumab arm). In the fenebrutinib and placebo arms, subjects received 50 mg QD, 150 mg QD, or 200 mg BID fenebrutinib tablets or placebo tablets, together with subcutaneous (SC) placebo injections every other week for 12 weeks (n = 40 in the 50 mg arm, and n = 109 to 111 in each of the other 4 arms). In the active comparator arm, patients received adalimumab 40 mg SC every other week and placebo tablets for 12 weeks. In cohort 2 (n = 98 enrolled), patients received 200 mg fenebrutinib BID or placebo tablets for 12 weeks.\n(§3) Treatment responses in RA clinical trials are commonly evaluated by the American College of Rheumatology improvement criteria for 20, 50, and 70% threshold values (ACR20, ACR50, and ACR70, respectively), which is a binary response variable, and by the Disease Activity Score with 28-joint counts (DAS28), which is a continuous variable ([27],[28]). Both types of endpoints can be measured repeatedly during the course of the treatment period. The proportion of patients achieving ACR50 responses and analysis of longitudinal DAS28 (CRP) (DAS based on 28 joints and C-reactive protein value) were evaluated as the primary, key secondary, and secondary endpoints in the Phase 2 trial, and therefore, were of primary interest among clinical efficacy endpoints modeled for fenebrutinib. The E-R analyses aimed to establish the relationship between patient-specific fenebrutinib exposure with clinical efficacy endpoints of interest. […]"}, "[2]": {"tested_on": "patients with rheumatoid arthritis", "assay": "Model-based meta-analysis (MBMA) of ACR20, ACR50, ACR70", "format": "in vivo, human", "description": "An efficacy and safety meta-analysis database was constructed in July 2017 using publicly available data of randomized trials in RA, based on the guidelines in the Cochrane Handbook for Systematic reviews. For this, a systematic review of publicly available data from the PubMed, Cochrane Library, and Embase databases was conducted using the search term “rheumatoid arthritis”. Furthermore, an existing database that contained data published in or before 2012 ([30]) was augmented using an additional, systematic, and quality-controlled procedure to search for relevant published studies, extract their data, and add to the existing database yielding pertinent data published through 2017.\nThe summary data of the database were explored systematically to determine the amount of data available for each treatment, efficacy and safety endpoint across trials, distribution of mean patient characteristics, and to graphically view the time course of longitudinal endpoints, placebo effect, active treatment effect from each of the comparator treatments, and the effects of patient and trial characteristics. Response rates of ACR20, ACR50, and ACR70 in terms of the proportion of patients achieving specified thresholds were the most prevalent efficacy endpoints in the database, and therefore, were chosen as the variables for model development using MBMA. Because of the relatively few adverse events observed in the fenebrutinib Phase 2 trial in RA ([24]), MBMA for safety events, such as serious infections, was not conducted.\nThe model simultaneously fit ACR20, ACR50, and ACR70 longitudinal data, and a non-linear mixed effects (NLME) estimation method was carried out using R. This hierarchical regression model used maximum likelihood estimation, and multiple levels of heterogeneity were described as mixed effect variability terms accommodating between-trial and within-trial variability. […]\nThe adequacy of model fits across trials was evaluated by visually inspecting time course plots of observed distributions vs. predicted values. […]"}, "[3]": {"parameters": "method as in PMID 29484638", "settings": "Phase 1, cited from earlier work"}, "[4]": {"assay": "Phase 1 relative bioavailability/food effect/drug-drug interaction study (GP29832), non-compartmental analysis", "format": "in vivo, human", "settings": "healthy volunteers"}, "[5]": {"assay": "Population pharmacokinetic (popPK) analysis of fenebrutinib plasma concentrations (Phase 1 GA29347, GP29832 and Phase 2 GA29350)", "format": "in vivo, human", "description": "Fenebrutinib plasma concentrations were determined by high performance liquid chromatography with tandem mass spectrometry (MS/MS) detection (Covance Laboratories Inc., USA). Calibration plots were linear throughout the range of 0.5 to 500 ng/mL (lower and upper limits of quantification, respectively) for fenebrutinib in human plasma. Relative standard deviation of precision was <7.8%, and the accuracy of the method was between 91.3% and 102.7%.\nFenebrutinib plasma concentrations from subjects providing all available PK data after tablet administration in the clinical studies were integrated into the popPK analysis. The model was characterized initially in healthy subjects ([22]) from the Phase 1 multiple ascending dose (MAD) (GA29347) and a Phase 1 relative bioavailability/food effect/drug-drug interaction (GP29832, ClinicalTrials.gov Identifier: NCT02699710) studies, and later updated to incorporate the Phase 2 data from the three fenebrutinib-treated arms in patients with RA.\nThe popPK model was developed by introducing features in the order of increasing complexity, beginning with very simple models (e.g. one-compartment with first-order elimination), and continuing until further improvement in model fit was not supported by the data.\nCovariate analysis first investigated the effects of pre-defined demographic, laboratory, prognostic, and treatment covariates on all the model parameters by using univariate screening. If >10% of a covariate was missing, the covariate was not included in the popPK analysis. Otherwise, the value of missing covariate observations was imputed as the median of the remaining values from an appropriate sub-population. For example, the missing baseline body weight value was imputed as the gender-adjusted median body weight of the remaining subjects. For categorical covariates, the most frequently occurring value was imputed for subjects with missing values in each trial. Concomitant proton pump inhibitor (PPI) and food were categorized as time-varying covariates, whereas the other categorical covariates were considered as baseline (non-time-varying) covariates. Next, covariates selected from the univariate screening (p value <0.05) were included in the evaluation of a full model followed by backwards elimination (p value <0.01). Effects of continuous covariates were incorporated into the model using the power function and normalized using the median of the covariate. Effects of categorical covariates were parameterized as proportional effects in the model, in which the fractional change on a model parameter was estimated, and the typical category constituted the largest proportion in the analysis population.\nThe final model was determined on the basis of objective function value, physiological plausibility of model parameter estimates, numerical convergence success, parameter estimate precision (relative standard errors <50%), and visual predictive check (VPC) plots. Goodness-of-fit plots were produced to verify the general agreement of fitted values with observed data. Prediction-corrected visual predictive check (pcVPC) was performed by normalizing the observed and simulated dependent variable based on the typical population prediction for the median independent variable in the bin ([26]). The pcVPC was stratified to evaluate the covariate effects of interest, whenever applicable. […]\nModel development was carried out using first order conditional estimation with interaction (FOCE-I) as implemented in NONMEM (version 7.3, ICON Development Solutions, Ellicott City, MD). Post-processing of NONMEM analysis results was carried out in R (version 3.2.2, R Development Core Team, 2008)."}, "[6]": {"tested_on": "patients with rheumatoid arthritis", "assay": "Exposure-response (E-R) analysis of longitudinal ACR20, ACR50, ACR70 in Phase 2 trial GA29350", "format": "in vivo, human", "from_the_text": "as §1, §2, §3"}}}
{"compound": "C[C@H]1CN(C2COC2)CCN1c1ccc(Nc2cc(-c3ccnc(N4CCn5c(cc6c5CC(C)(C)C6)C4=O)c3CO)cn(C)c2=O)nc1", "note": "[fenebrutinib]", "values": [{"measurement": "inhibition of BTK", "setting": "BTK", "result": "dose- and concentration-dependent inhibition"}, {"measurement": "Time of 50% drug effect", "setting": "[1]; DAS28 (CRP) E-R model θ4", "result": 47, "unit": "days"}, {"measurement": "Maximum drug effect over time (DAS28)", "setting": "[1]; DAS28 (CRP) E-R model θ6", "result": -0.964}, {"measurement": "ω2Max drug effect", "setting": "[1]; DAS28 (CRP) E-R model ω2.2, inter-individual variability", "result": 0.283}, {"measurement": "efficacy in terms of ACR20, ACR50, and ACR70 compared to the registrational doses of adalimumab and tofacitinib", "setting": "[2]; MBMA simulation, 200 mg BID, TNF-IR patients, 12 weeks after initiation of treatment", "result": "comparable efficacy"}, {"measurement": "ED50, dose at which 50% of efficacy", "setting": "[2]; calculated from E-R EC50 and fixed in MBMA model", "result": 525, "unit": "mg/week"}, {"measurement": "accumulation", "setting": "[3]; following twice daily dosing", "result": "modest accumulation"}, {"measurement": "increase of plasma exposures with dose", "setting": "[3]; healthy subjects", "result": "approximately dose-proportionally"}, {"measurement": "steady-state half-life", "setting": "[3]; healthy subjects", "result": "4.2 to 9.9", "unit": "h"}, {"measurement": "time of peak plasma concentrations after oral administration", "setting": "[3]; healthy subjects", "result": "1 to 3", "unit": "h"}, {"measurement": "PPI effect on Cmax", "setting": "[4]", "result": "PPI decreases the Cmax"}, {"measurement": "food effect on concentration-time profile and Tmax", "setting": "[4]", "result": "food blunts the concentration-time profile and delays the Tmax"}, {"measurement": "apparent clearance (CL/F) decrease with concomitant administration of PPI", "setting": "[5]; concomitant PPI", "result": 33.7, "unit": "%"}, {"measurement": "CL/F: Apparent systemic clearance", "setting": "[5]; final popPK model estimate θ1, oral, typical RA patient", "result": 19.5, "unit": "L/h"}, {"measurement": "NTR: Number of transit compartments", "setting": "[5]; final popPK model estimate θ7, transit compartment absorption model", "result": 14.9}, {"measurement": "MTT: Mean transit time", "setting": "[5]; final popPK model estimate θ8", "result": 0.849, "unit": "h"}, {"measurement": "Food effect on MTT", "setting": "[5]; final popPK model estimate θ11, covariate effect", "result": 1.43}, {"measurement": "PPI effect on MTT", "setting": "[5]; final popPK model estimate θ12, concomitant proton pump inhibitor", "result": 0.835}, {"measurement": "PPI and food effect on MTT", "setting": "[5]; final popPK model estimate θ13", "result": 2.26}, {"measurement": "PPI effect on F1", "setting": "[5]; final popPK model estimate θ14, F1 relative extent of absorption", "result": 0.657}, {"measurement": "PPI and food effect on F1", "setting": "[5]; final popPK model estimate θ15", "result": 0.693}, {"measurement": "Food effect on NTR", "setting": "[5]; final popPK model estimate θ16", "result": 0.864}, {"measurement": "Tablet effect on NTR", "setting": "[5]; final popPK model estimate θ17, formulation effect", "result": 0.049}, {"measurement": "Vd/F", "setting": "[5]; human, plasma, oral, final popPK model estimate θ2, read-out: V1/F: Apparent central volume of distribution", "result": 381, "unit": "L"}, {"measurement": "ω^2CL/F", "setting": "[5]; inter-individual variability ω1.1", "result": 0.0732}, {"measurement": "ω^2V1/F", "setting": "[5]; inter-individual variability ω2.2", "result": 0.100}, {"measurement": "ω^2MTT", "setting": "[5]; inter-individual variability ω8.8", "result": 0.0861}, {"measurement": "ω^2F1", "setting": "[5]; inter-individual variability ω9.9", "result": 0.131}, {"measurement": "ω^2IOV on F1", "setting": "[5]; inter-occasion variability ω10.1", "result": 0.299}, {"measurement": "higher apparent clearance in healthy subjects than patients with RA", "setting": "[5]; two Phase 1 studies vs Phase 2 trial", "result": 52, "unit": "%"}, {"measurement": "Max drug effect over time - Eastern Europe", "setting": "[6]; ACR20/50/70 E-R model θ9, logit scale", "result": 1.39}, {"measurement": "Max drug effect over time - Latin America", "setting": "[6]; ACR20/50/70 E-R model θ14", "result": 2.06}, {"measurement": "efficacy versus exposure (ACR responses and DAS28 (CRP))", "setting": "[6]; graphical exploration and model-based simulation, cohort 1 MTX-IR patients, exposure range of Phase 2 study", "result": "plateau of efficacy was achieved"}]}
{"compound": "adalimumab [reference compound]", "values": [{"measurement": "ACR20, ACR50, and ACR70 response rates in arm of the fenebrutinib Phase 2 trial versus historical data", "setting": "[2]; adalimumab 40 mg SC every other week arm, MBMA", "result": "consistent with historical data"}]}
